Measurements published in patent US6043357A, “HIV protease inhibitors” (The University of Queensland, priority 1994, dated 2000).
“Also recorded” adds a separate entry of the source. Where two headings read alike, the source gives them in different places. Values belong to the molecule of their own block, whether it stands above or below them.

What was measured:
HIV = assay: Activity against HIV in cells / cell culture; format: cell-based
HIV-1 protease = HIV-1 protease (Human immunodeficiency virus type 1 group M subtype B, UniProt P03369); assay: biochemical
Experimental: HIV-1 protease activity was measured at 37° C. using a continuous fluorimetric assay based on the method of Toth et al., (Toth et al., 1990, Int. J. Pept. Res. 36 544-550). The substrate, 2-aminobenzoyl-threonine-isoleucine-norleucine-(p-nitro)-phenylalanine-glutamine-arginine-NH2 (Abz-NF^* -6), was synthesised by solid phase peptide synthesis (Kent et al., 1991, In: Peptides 1990: Proceedings of the Twenty-First European Peptide Symposium (Girault, E. and Andrew, D. eds.) pp 172-173, ESCOM, Leiden). Enzyme activity was measured as the increase in fluorescence intensity upon substrate hydrolysis. The change in fluorescence intensity was monitored with a Perkin Elmer LS50B luminescence spectrometer fitted with a thermostatted micro cuvette holder. Measurements were carried out using an excitation wavelength of 320 nm (bandwith 5 nm) and an emission wavelength of […] (bandwith 5 nm).
Inhibition assays were routinely carried out at pH 6.5 and μ=0.1 M using a single substrate concentration. The assay mixtures contained 50 μM Abz-NF^* -6 in 100 mM 2-(N-morpholino)ethanesulphonate buffer, containing 10% (v/v) glycerol and 50 μg/ml bovine serum albumin, in a total final volume of 400 μl. Where inhibitors had to be dissolved in dimethyl sulphoxide or other organic solvents, the final concentration of solvent in the control and inhibition assays were kept absolutely constant because of the severe inhibitory effect of some solvents on the enzyme activity (Bergman et al., 1992, 17th Ann. Lorne Conf. on Protein Struct. and Funct. Abstr.). In all assays, the reaction was initiated by the addition of 10 μl of enzyme solution.

HIV-1 (strain TC354) = assay: Assay for anti-viral activity: HIV-1 (strain TC354) replication in PHA-stimulated cord blood mononuclear cells, reverse transcriptase activity; format: cell-based; conditions: read-out: effective concentration, inhibition of virus replication
Experimental: Method: Target cells (PHA-stimulated cord blood mononuclear cells) were washed free of PHA and inoculated with HIV-1 (strain TC354) at a multiplicity of infection of 1, in the presence of 20 μg/ml DEAE-dextran for 30 mins. Cells were washed to remove unbound virus and residual DEAE-dextran. 10^5 cells were added to each well of 96 well plate, solutions of test compounds were added, each tested in triplicate. Dilutions were prepared in RPMI/1640. Tissue culture medium (RPMI/1640 buffer, 10% FCS, 20 U/ml […]) was added to a final volume of 200 μl. Reverse transcriptase activity was assayed four days post inoculation, RT activity >30 cpm was considered positive for HIV-1 replication.

Molecule: CC(C)(C)NC(=O)[C@@H]1CCCCN1C[C@@H](O)[C@@H]1Cc2ccc(cc2)OCCCC(=O)N[C@@H](CC(N)=O)C(=O)N1 [Compound 44]
- anti-viral activity, stated in words (HIV): poor inhibitor of viral replication in cells
- IC50 (HIV-1 protease): 16 nM
- EC50 (HIV-1 (strain TC354); Human immunodeficiency virus 1, 96 h): 1000 nM

- IC50 (HIV; Human immunodeficiency virus 1, read-out: IC50, anti-viral activity against HIV in cell culture): < 1000 nM
- IC50 (HIV-1 protease; Table 9, R isomer, read-out: IC50): 1 nM
- EC50 (HIV-1 (strain TC354); four days post inoculation): 100000 nM
Molecule: CC[C@H](C)[C@@H]1NC(=O)[C@@H](NC[C@@H](O)[C@H](Cc2ccccc2)NC(=O)[C@@H](NC(=O)c2ccc3ccccc3n2)C(C)C)Cc2ccc(cc2)OCCCNC1=O [Compound 93]
- protease inhibition, stated in words (HIV-1 protease): very potent inhibitor of HIV-1 protease; also recorded: equipotent as a protease inhibitor with the DuPont-Merck compound DM323

- EC50 (HIV-1 (strain TC354); Human immunodeficiency virus 1, 96 h, four days post inoculation): 100 nM
Molecule: CC(C)CCN(C[C@@H](O)[C@@H]1Cc2ccc(cc2)OCCCCC(=O)N[C@@H](C(C)C)C(=O)N1)S(=O)(=O)c1ccccc1 [Compound 68]

Molecule: Ac-Ser-Leu-Asn-Phe-[CHOH--CH2 ]-Pro-Ile-Val-OMe (Ac-SLNFPIV-OMe; also: hydroxyethylene isostere [CHOH-CH2] replaces the Phe-Pro amide bond) [JG-365, reference compound]
- anti-viral activity, stated in words (HIV): do not have anti-viral activity
- activity against HIV in cells (HIV; at 100 μM): inactive
- IC50 (HIV-1 protease; R-isomer of JG-365, pH 6.5, 37° C., read-out: IC50 (Inhibitor Potency)): 44 nM
- IC50 (HIV-1 protease; S-isomer of JG-365, pH 6.5, 37° C., read-out: IC50 (Inhibitor Potency)): 6 nM

- protease inhibition, stated in words (HIV-1 protease): activity was instead reduced
- IC50 (HIV-1 protease; Table 2, pH 6.5, 37° C., read-out: IC50): 28000 nM
Molecule: CC[C@H](C)[C@H](NC(=O)[C@@H]1CCCN1C[C@H](O)[C@@H]1CSSCC(NC(C)=O)C(=O)NCC(=O)N[C@@H](CC(N)=O)C(=O)N1)C(=O)N[C@H](C(N)=O)C(C)C (stereo partly drawn) [Compound 17]

Molecule: CC[C@H](C)[C@H](NC(=O)[C@@H]1CCCN1C[C@@H](O)[C@@H]1Cc2ccc(cc2)OCC(=O)N[C@@H](CCCNC(=N)N)C(=O)N[C@@H](CC(N)=O)C(=O)N1)C(=O)N[C@H](C(N)=O)C(C)C [Compound 23]
- IC50 (HIV-1 protease; pH 6.5): 49 nM

- protease inhibition, stated in words (HIV-1 protease): potent inhibitors of HIV-1 protease
Molecule: CC(=O)Nc1ccc(S(=O)(=O)N(CCC(C)C)C[C@H](O)[C@@H]2Cc3ccc(cc3)OCCCC(=O)N[C@@H](C(C)C)C(=O)N2)cc1 [Compound 59]

Molecule: CC(C)N(C(=O)[C@@H]1CCCN1C[C@@H](O)[C@@H]1Cc2ccc(cc2)OCCCC(=O)N[C@@H](CC(N)=O)C(=O)N1)C(C)C [Compound 40]
- IC50 (HIV-1 protease): 106000 nM
- protease inhibition, stated in words (HIV-1 protease): much less active
